# Where two headings read alike, the source gives them in different places.
# Legend:
# Metabolic stability test = format: in vitro ADME; details: human liver microsomes, 37° C., 30 minutes, NADPH
# Procedure, shortened: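 Parent compound was measured by LC/MS/MS or SPE/MS after a methanol/acetonitrile quench and reported as % remaining, with the 0 min sample set to 100%. Incubations ran 30 min at 37 °C in pH 7.4 Tris buffer containing pooled human liver microsomes at 0.5 mg protein/mL and 1 mmol/L NADPH.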
# [1] = target: T1, human ether-a-go-go related gene (hERG) channel (Homo sapiens, UniProt Q12809); assay: hERG test; format: cell-based; details: % inhibition of IKr tail peak current at 3 uM; CHO cells expressing hERG
# T1 construct: expressed in transfected cells; host or cells: CHO cells
# T1 sequence (Q12809 whole entry): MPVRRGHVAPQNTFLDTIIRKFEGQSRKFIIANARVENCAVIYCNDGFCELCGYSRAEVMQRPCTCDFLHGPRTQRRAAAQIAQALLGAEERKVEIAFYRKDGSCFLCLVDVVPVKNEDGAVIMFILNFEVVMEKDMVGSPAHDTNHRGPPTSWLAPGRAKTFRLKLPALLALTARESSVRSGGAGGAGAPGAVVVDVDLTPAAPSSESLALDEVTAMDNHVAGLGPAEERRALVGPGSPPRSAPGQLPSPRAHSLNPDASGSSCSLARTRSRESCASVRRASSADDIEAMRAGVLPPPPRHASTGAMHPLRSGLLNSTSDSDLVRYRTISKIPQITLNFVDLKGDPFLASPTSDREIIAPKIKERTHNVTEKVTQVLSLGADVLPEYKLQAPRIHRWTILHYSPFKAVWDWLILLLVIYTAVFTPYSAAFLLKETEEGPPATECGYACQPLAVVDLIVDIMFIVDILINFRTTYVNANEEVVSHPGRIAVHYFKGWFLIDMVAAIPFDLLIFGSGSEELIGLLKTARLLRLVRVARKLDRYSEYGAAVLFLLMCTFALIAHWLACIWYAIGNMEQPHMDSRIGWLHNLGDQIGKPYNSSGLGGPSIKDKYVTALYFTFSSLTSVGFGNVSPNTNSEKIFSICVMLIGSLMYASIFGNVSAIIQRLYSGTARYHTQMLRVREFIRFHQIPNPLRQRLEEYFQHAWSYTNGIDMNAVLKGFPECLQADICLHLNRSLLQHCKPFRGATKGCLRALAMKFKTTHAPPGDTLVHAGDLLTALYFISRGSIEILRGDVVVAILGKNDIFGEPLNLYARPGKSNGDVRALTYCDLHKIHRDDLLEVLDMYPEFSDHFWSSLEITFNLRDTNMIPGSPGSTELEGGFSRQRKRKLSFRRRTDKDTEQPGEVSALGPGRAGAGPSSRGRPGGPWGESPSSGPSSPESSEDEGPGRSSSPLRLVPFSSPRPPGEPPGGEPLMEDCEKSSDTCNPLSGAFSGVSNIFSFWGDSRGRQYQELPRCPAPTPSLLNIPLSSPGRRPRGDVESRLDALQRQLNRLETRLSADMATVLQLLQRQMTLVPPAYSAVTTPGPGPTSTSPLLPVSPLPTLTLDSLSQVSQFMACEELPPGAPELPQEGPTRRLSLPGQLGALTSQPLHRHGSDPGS
# Procedure, shortened: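 Automated whole-cell patch clamp was run on CHO cells carrying human hERG, held at −80 mV. Current was recorded during the −50 mV repolarization (2 s) that followed a 2 s +20 mV step, after a −50 mV leak pulse.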
# Solubility test = format: physicochemical
# Procedure, shortened: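 Dissolved concentration determined by LC/MS or SPE/MS (absolute calibration) in diluted filtrates, after 2 μL of 10 mmol/L DMSO stock was added to 198 μL JP 1st or JP 2nd fluid and equilibrated either 1 h with shaking at room temperature or 16 h standing at 25 °C.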
# CYP2C19 = target: T2, CYP2C19 (Homo sapiens, UniProt P33261); assay: CYP inhibition test (CYP2C19); format: in vitro ADME; details: pooled human liver microsomes; mephenytoin 4′-hydroxylation
# T2 construct: The commercially available pooled human liver microsomes are used as an enzyme resource; from tissue; host or cells: pooled human liver microsomes
# T2 sequence (P33261 whole entry): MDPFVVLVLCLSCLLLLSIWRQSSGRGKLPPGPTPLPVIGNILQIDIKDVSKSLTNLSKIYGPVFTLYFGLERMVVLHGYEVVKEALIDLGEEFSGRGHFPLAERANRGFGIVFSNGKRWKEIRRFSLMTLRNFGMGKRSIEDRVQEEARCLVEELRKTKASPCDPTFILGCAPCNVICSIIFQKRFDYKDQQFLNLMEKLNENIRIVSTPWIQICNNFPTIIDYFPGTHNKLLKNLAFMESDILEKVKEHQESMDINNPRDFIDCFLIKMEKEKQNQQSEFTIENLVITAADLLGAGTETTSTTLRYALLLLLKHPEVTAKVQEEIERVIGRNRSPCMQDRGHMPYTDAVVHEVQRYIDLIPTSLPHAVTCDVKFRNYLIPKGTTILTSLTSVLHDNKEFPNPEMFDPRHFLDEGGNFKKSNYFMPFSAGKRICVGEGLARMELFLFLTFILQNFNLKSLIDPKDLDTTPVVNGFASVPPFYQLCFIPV
# Procedure, shortened: (§1)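 Pooled human liver microsomes (0.2 mg protein/mL) with compound at 1, 5, 10 and 20 μmol/L and NADPH, at 37 °C. Marker substrates: dextromethorphan 5 μmol/L (2D6), terfenadine 1 μmol/L (3A4), S-mephenytoin 50 μmol/L (2C19), tolbutamide 100 μmol/L (2C9). Metabolites were measured by LC/MS/MS, and IC50 was derived by logistic fit of remaining activity against the DMSO control.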
# CYP3A4 = target: T3, CYP3A4 (Homo sapiens, UniProt P08684); assay: CYP inhibition test (CYP3A4); format: in vitro ADME; details: pooled human liver microsomes; terfenadine hydroxylation
# T3 construct: The commercially available pooled human liver microsomes are used as an enzyme resource; from tissue; host or cells: pooled human liver microsomes
# T3 sequence (P08684 whole entry): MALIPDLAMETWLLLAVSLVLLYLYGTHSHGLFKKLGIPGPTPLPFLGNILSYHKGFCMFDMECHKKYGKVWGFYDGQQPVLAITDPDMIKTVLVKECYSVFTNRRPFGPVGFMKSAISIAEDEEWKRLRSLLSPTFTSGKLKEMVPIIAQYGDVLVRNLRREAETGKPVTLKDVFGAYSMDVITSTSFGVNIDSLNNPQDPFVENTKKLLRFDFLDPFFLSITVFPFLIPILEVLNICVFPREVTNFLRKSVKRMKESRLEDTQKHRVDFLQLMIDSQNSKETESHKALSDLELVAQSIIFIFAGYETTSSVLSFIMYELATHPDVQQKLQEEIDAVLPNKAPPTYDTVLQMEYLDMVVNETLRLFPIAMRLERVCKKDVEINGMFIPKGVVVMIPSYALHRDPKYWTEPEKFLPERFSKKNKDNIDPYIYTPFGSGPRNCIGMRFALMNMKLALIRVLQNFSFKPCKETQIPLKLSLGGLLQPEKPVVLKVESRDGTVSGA
# Procedure, shortened: as §1
# CYP1A2 = target: T4, CYP1A2 (Homo sapiens, UniProt P05177); assay: CYP inhibition test (CYP1A2); format: in vitro ADME; details: pooled human liver microsomes; 7-ethoxyresorufin O-deethylation
# T4 construct: The commercially available pooled human liver microsomes are used as an enzyme resource; from tissue; host or cells: pooled human liver microsomes
# T4 sequence (P05177 1-516): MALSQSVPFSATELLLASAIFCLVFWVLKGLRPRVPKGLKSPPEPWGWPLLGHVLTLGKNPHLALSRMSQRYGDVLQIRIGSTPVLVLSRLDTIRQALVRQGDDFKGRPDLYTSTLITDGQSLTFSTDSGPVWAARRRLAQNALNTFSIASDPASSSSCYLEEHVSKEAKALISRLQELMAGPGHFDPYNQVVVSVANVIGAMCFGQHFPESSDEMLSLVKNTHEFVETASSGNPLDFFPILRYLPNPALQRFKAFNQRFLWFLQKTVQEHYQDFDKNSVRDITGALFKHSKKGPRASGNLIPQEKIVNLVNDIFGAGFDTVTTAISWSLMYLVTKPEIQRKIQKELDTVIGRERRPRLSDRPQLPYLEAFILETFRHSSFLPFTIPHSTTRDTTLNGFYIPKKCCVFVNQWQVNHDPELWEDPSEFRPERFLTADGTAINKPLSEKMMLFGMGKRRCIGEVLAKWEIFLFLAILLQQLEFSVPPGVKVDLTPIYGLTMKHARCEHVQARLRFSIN
# Procedure, shortened: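 Inhibition of CYP1A2 was measured in commercially available pooled human liver microsomes (0.2 mg protein/mL) using 7-ethoxyresorufin O-deethylation with 0.5 μmol/L ethoxyresorufin. Test compound at 1, 5, 10, 20 μmol/L in […] Hepes buffer was incubated at 37° C. after NADPH addition; methanol/acetonitrile=1/1 (v/v) stopped the reaction, and resorufin was read fluorescently.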
# [2] = JP 1st fluid, pH 1.2, simulated gastric fluid, kinetic from dmso stock, read-out: JP1
# [3] = JP 2nd fluid A, pH 6.8, aqueous buffer, kinetic from dmso stock, read-out: JP2_μM
# [4] = JP 1st fluid, 25 °C, pH 1.2, simulated gastric fluid, kinetic from dmso stock, read-out: JP1
# [5] = JP 2nd fluid A, 25 °C, pH 6.8, aqueous buffer, kinetic from dmso stock, read-out: JP2_μM
# [6] = solubility in JP 2nd fluid B, 1% DMSO, *2: shaken for 1 hour at room temperature, read-out: JP2_μM
# [7] = JP 2nd fluid B, pH 6.8, aqueous buffer, kinetic from dmso stock, read-out: JP2_μM
SMILES,remaining % (Metabolic stability test) [%],hERG_3 uM_% [1] [%],solubility kinetic at 1 h (Solubility test; [2]) [µM],solubility kinetic at 1 h (Solubility test; [3]) [µM],IC50 (CYP2C19) [µM],IC50 (CYP3A4) [µM],IC50 (CYP1A2) [µM],solubility kinetic at 16 h (Solubility test; [4]) [µM],solubility kinetic at 16 h (Solubility test; [5]) [µM],solubility kinetic at 16 h (Solubility test; [6]) [µM],solubility kinetic at 1 h (Solubility test; [7]) [µM]
C[C@H]1SC(N)=N[C@](C)(c2cc(NC(=O)c3cnc(OC(F)F)cn3)ccc2F)[C@H]1F [Compound I-47],96.9,40.4,> 50,30.5,≥ 20,≥ 20,≥ 20,,,,
C[C@]1(c2cc(NC(=O)c3cnc(OCF)cn3)ccc2F)N=C(N)O[C@H](CF)[C@@H]1OCC(F)(F)F [Compound I-12],97.8,35.5,,,≥ 20,≥ 20,≥ 20,36.1,> 50,,
COc1cnc(C(=O)Nc2ccc(F)c([C@@]3(C)N=C(N)S[C@H](C)[C@@H]3OC)c2)cn1 [Compound I-90],83.1,11.4,> 50,,≥ 20,≥ 20,≥ 20,,,>50,
COc1cnc(C(=O)Nc2ccc(F)c([C@@]3(C)N=C(N)O[C@H]([C@@H](C)F)[C@@H]3F)c2)cn1 [Compound I-71],63,17,> 50,> 50,≥ 20,≥ 20,≥ 20,,,,
C[C@H]1SC(N)=N[C@](C)(c2cc(NC(=O)c3ccc(F)cn3)ccc2F)[C@H]1F [Compound I-116],106,45.5,,,≥ 20,≥ 20,≥ 20,> 50,> 50,,
Cc1cc(C#N)cnc1C(=O)Nc1ccc(F)c([C@@]2(C)N=C(N)S[C@H](C)[C@@H]2F)c1 [Compound I-52],60.3,55.7,> 50,,≥ 20,≥ 20,≥ 20,,,,13.9
CO[C@H]1[C@@H](CF)OC(N)=N[C@]1(C)c1cc(NC(=O)c2cnc(OCF)cn2)ccc1Cl [Compound I-19],69.9,18.8,,,≥ 20,≥ 20,≥ 20,37.1,> 50,,
C[C@H]1SC(N)=N[C@](C)(c2cc(NC(=O)c3ncc(OCC(F)(F)F)cn3)ccc2F)[C@H]1F [Compound I-53],109,47.9,> 50,,≥ 20,≥ 20,≥ 20,,,>50,
CO[C@H]1[C@@H](C)SC(N)=N[C@]1(C)c1cc(NC(=O)c2ccc(C#N)cn2)ccc1F [Compound I-88],83.5,45.6,> 50,,≥ 20,≥ 20,≥ 20,,,>50,
C[C@H]1[C@@H](C(F)F)OC(N)=N[C@]1(C)c1cc(NC(=O)c2cnc(OCF)cn2)ccc1F [Compound I-33],87.5,21.9,39.4,> 50,≥ 20,≥ 20,≥ 20,,,,
C[C@@H](F)[C@H]1OC(N)=N[C@](C)(c2cc(NC(=O)c3ccc(C#N)cn3)ccc2F)[C@H]1F [Compound I-15],104,57,31.9,> 50,≥ 20,≥ 20,≥ 20,,,,
C[C@H]1SC(N)=N[C@](C)(c2nc(NC(=O)c3ccc(F)cn3)ccc2F)[C@H]1F [Compound I-2],88,38.7,,,≥ 20,≥ 20,≥ 20,23.3,> 50,,
COc1ccc(C(=O)Nc2ccc(F)c([C@@]3(C)N=C(N)S[C@H](C)[C@@H]3F)c2)nn1 [Compound I-108],92.1,39.5,> 50,,≥ 20,≥ 20,≥ 20,,,>50,
C[C@]1(c2cc(NC(=O)c3cnc(OCF)cn3)ccc2F)N=C(N)S[C@H](CO)[C@@H]1F [Compound I-109],86.8,11,> 50,,≥ 20,≥ 20,≥ 20,,,,19
C[C@H](F)[C@H]1OC(N)=N[C@](C)(c2cc(NC(=O)c3ccc(C#N)cn3)ccc2F)[C@H]1F [Compound I-13],101,52.8,,,≥ 20,≥ 20,≥ 20,39.6,> 50,,
COC[C@H]1SC(N)=N[C@](C)(c2cc(NC(=O)c3cnc(OCF)cn3)ccc2F)[C@H]1F [Compound I-91],74.4,11.3,> 50,,≥ 20,≥ 20,≥ 20,,,>50,

# From patent US20170073337A1, “DIHYDROTHIAZINE AND DIHYDROOXAZINE DERIVATIVES HAVING BACE1 INHIBITORY ACTIVITY” (Shionogi & Co., Ltd., priority 2014, published 2017)
